In patent US12011433B2 (UNIVERSITÁ DEGLI STUDI DI BARI “ALDO MORO”, priority 2016, dated 2024):
Marks after values point to notes of the source that are not given here.

What was measured:
[1] = system: PGE2; assay: PGE2 release in brain specimens from LPS-treated mice; assay type: in vivo; conditions: for PGE2 release reduction (%): LPS-treated mice, mofezolac 6 mg/kg i.p.; for PGE2 release (ng/mg tissue): LPS or M+LPS treated mice
Protocol: On the seventh day, mice were anesthetized with tribromoethanol (250 mg/Kg, i.p.) and positioned in a stereotactic apparatus (Kopf Instruments, Tujunga, CA, USA). […] Sterotaxic injections coordinates were: 2.3 mm dorsal/ventral, 1.0 mm lateral, and 0.5 mm anterior/posterior from the bregma.
Microglial cells were cultured in 6-well plates at a density of 3×10^6 cells/well. […] The cultures were maintained at 37° C. for 24 and 48 h in a humidified air containing a 5% CO2. PGE2 levels were determined in the supernatant using a competitive binding immunoassay (Cayman Chemical, Ann Arbor, MI, USA) following the manufacturer's instructions. Unstimulated cells were included as a control. PGE2 amount determination in the brain was performed in the tissue extracts, according to the manufacturer's instructions. The optical density was measured at λ=405-420 nm with precision microplate reader and the amount of PGE2 (ng/mL) was calculated using a PGE2 standard curve.

[2] = biological target: COX-2 (Mus musculus (Mouse), UniProt Q05769); assay: COX-2 expression in LPS-treated BV2 microglial cells, western blotting; assay type: cell-based; conditions: LPS-stimulated BV2 cells
Protocol: Cells were then incubated for different times at 37° C. with LPS, as pro-inflammatory stimulus. Experiments included cells grown in medium alone (control).
The tissue and cell culture lysates were vortexed for 15-20 s and, then, centrifuged at 12,800×g for 20 min. The protein concentration in the supernatant was spectrophotometrically determined by Bradford's protein assay (Bradford, 1976). Protein samples were diluted with sample buffer (0.5 M Tris-HCl pH=6.8, 10% glycerol, 10% (w/v) SDS, 5% 2-mercaptoethanol, 0.05% (w/v) bromophenol blue) and then boiled for 3 min. Proteins (25 μg/lane) and prestained standards (BioRad Laboratories, Hercules, CA, USA) were loaded on 7% or 12% SDS precast polyacrylamide gels (BioRad Laboratories).
After electrophoresis, the resolved proteins were transferred from the gel to nitrocellulose membranes. A blotting buffer [20 mMTris/150 mM glycine, pH=8.0, 20% (v/v) methanol] was used for gel and membrane saturation and blotting. […]

In the case of `COc1ccc(-c2noc(CC(=O)O)c2-c2ccc(OC)cc2)cc1` [mofezolac, 2-(3,4-bis(4-methoxyphenyl)isoxazol-5-yl)acetic acid], the “PGE2 release reduction (%)” value ([1]; Caudate) is reported as 67%, the “PGE2 release (ng/mg tissue)” value ([1]; Caudate-Putamen) is reported as 1.84 + 0.035 ^d ng/mg tissue and the “PGE2 release (ng/mg tissue)” value ([1]; Frontal lobe) is reported as 2.40 ± 0.046 ^d ng/mg tissue. For the same compound, the “PGE2 release reduction (%)” value ([1]; Frontal lobe) was 49%, the “PGE2 release (ng/mg tissue)” value ([1]; Hippocampus) was 2.33 ± 0.032 ^d ng/mg tissue and the “PGE2 release reduction (%)” value ([1]; Hippocampus) was 48%. The “PGE2 release (ng/mg tissue)” value ([1]; Substantia nigra) was 3.31 ± 0.079 ^d ng/mg tissue, the “PGE2 release reduction (%)” value ([1]; Substantia nigra) was 39% and the COX-2 protein levels [2] was “unaffected”.
